The results in this text go back to patent publication US20220252575A1, “SCREENING METHOD AND TOXICITY EVALUATION METHOD” (Public University Corporation Yokohama City University, priority 2019, published 2022).

This series concerns iPS cell-derived human hepatic sinusoidal endothelial cells. The series is described as follows: Detection of membrane attack complex in iPS cell-derived human hepatic sinusoidal endothelial cell with Oxaliplatin administration. The format is cell-based. The conditions noted are these: Oxaliplatin final concentration 20 μM vs solvent (ethanol), 3% human serum, 10% organoid culture supernatant.

The structures appear in SMILES notation.

Turning to `O=C1[O][Pt]2([NH][C@@H]3CCCC[C@H]3[NH]2)[O]C1=O` [Oxaliplatin], the “number of cells (quantified with DAPI as an index)” value (24 hr (FIG. 4A)) is listed as “significant decrease in the number of cells”. Moreover, the “amount of MAC formed by human serum” value (24 hr (FIG. 4B)) is “significantly increased”.
